Legend:
PnpA = target: T1, PnpA (Pseudomonas putida, UniProt C6FI48); assay: colour change of PNP oxidation by purified enzyme; format: biochemical; conditions: conditions as in an earlier paper
T1 construct: His-tagged (pET-pnpAhis), expressed in E. coli BL21(DE3), purified
T1 sequence (C6FI48 1-418): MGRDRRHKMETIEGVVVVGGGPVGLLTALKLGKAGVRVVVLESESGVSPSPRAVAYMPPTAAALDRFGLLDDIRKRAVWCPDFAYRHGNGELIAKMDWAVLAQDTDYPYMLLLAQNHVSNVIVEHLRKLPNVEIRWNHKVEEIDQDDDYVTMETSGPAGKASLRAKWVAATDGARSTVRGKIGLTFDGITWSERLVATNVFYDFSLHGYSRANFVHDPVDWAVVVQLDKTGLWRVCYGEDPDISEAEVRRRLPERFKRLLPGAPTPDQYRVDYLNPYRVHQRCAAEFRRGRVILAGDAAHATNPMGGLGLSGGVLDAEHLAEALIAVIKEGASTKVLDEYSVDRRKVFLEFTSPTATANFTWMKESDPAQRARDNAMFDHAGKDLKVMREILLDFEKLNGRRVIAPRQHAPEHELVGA

PnpC1C2 = target: T2, PnpC1C2 (Pseudomonas putida, UniProt C6FI41); assay: UV spectral change, absorption increase at […] nm; format: biochemical; conditions: conditions as in an earlier paper
T2 construct: gene pnpC2; two-subunit complex, C-terminal His tag, expressed in E. coli BL21(DE3), Ni-NTA purified; with hydroquinone dioxygenase alpha subunit (hydroquinone 1,2-dioxygenase small subunit)
T2 sequence (C6FI41 1-339): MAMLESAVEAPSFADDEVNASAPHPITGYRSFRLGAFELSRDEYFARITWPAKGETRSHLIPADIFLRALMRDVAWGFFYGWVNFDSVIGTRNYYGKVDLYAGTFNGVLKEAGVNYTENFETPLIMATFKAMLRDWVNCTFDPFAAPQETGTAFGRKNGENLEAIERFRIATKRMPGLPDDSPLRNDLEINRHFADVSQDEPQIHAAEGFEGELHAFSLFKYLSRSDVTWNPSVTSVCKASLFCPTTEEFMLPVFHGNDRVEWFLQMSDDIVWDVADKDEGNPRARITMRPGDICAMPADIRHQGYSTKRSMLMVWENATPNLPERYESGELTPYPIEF
T2 sequence (C6FI40 1-164 partner): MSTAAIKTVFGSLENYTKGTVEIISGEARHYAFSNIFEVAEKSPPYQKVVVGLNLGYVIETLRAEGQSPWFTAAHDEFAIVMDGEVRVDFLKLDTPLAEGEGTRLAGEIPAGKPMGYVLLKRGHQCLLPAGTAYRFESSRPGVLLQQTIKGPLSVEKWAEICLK

| SMILES | colour change of PNP oxidation by purified enzyme (PnpA) | UV spectral change, absorption increase at 320 nm (PnpC1C2) |
| --- | --- | --- |
| O=[N+]([O-])c1ccc(O)cc1 [para-nitrophenol] | only PnpA had the ability to oxidize PNP |  |
| Oc1ccc(O)cc1 [hydroquinone] |  | PnpC1C2 and PnpC1C2b both transformed HQ into γ-hydroxymuconic semialdehyde in vitro |
